Results from patent US20060110456A1, “Method for biocidal and/or biostatic treatment and compositions therefor” (NATIONAL UNIVERSITY OF SINGAPORE, priority 2004, published 2006).
Where a name gives a salt, the structure may show the parent alone.

Test system: marine bacteria
Assay: Growth assay (absorbance, 96-well plates)
Type: cell-based, marine bacteria isolated from Singapore fouling communities
Details: 25 μg ml^−1
Experimental: The dried powder was re-suspended in sterile deionized water and made up to 2 mg ml^−1.
The same bacterial strains were used and cultured the same way as in disc inhibition assay. Cells were harvested by centrifugation at 300 rpm for 10 min. The supernatant was discarded and the pellet re-suspended using sterile seawater collected from St. John's island, Singapore. The concentration of bacterial cells was adjusted to an absorbance of approximately 0.6 using a spectrophotometer (Beckman DU530) at wavelength 600 nm.
The growth with response to the pharmaceuticals was assumed to be proportional to the absorbance of the bacteria. […] To each well 25 μl of each drug solution (concentration adjusted to 100 μg ml^−1) were pipetted into three wells followed by 10 μl of broth and 65 μl of sterile seawater. For wells that were to contain bacteria, 60 μl of sterile seawater was used instead. All wells used for growth studies were prepared in triplicate and inoculated with 5 μl of the bacterial suspension. Blanks consisting of the respective volumes of pharmaceutical with Marine Broth and distilled water, if needed, were prepared in triplicate and inoculated with 5 μl of sterile seawater.
The absorbance (A600) of each well was read in a plate reader (Sunrise Tecan Model F039300) immediately (time=0 hours) and after 1, 2, 3, 4, 20, 23 and 28 hours. Plates were incubated overnight inside a moistened airtight container.
Any changes in absorbance were plotted and compared with control. The mean absorbance (mean bac) from the bacteria was obtained by deducting the absorbance values of blank wells (containing seawater and broth only) from that for the control wells (containing bacteria in seawater and broth only). The absorbance arising from the drugs was obtained from the 0 hr reading for wells containing drugs and bacteria, minus the wells with drugs alone (mean “drug”). The growth assays were repeated three times.

With `CN1CCN(CCCN2c3ccccc3Sc3ccc(C(F)(F)F)cc32)CC1` [TFZ, Trifluoperazine hydrochloride] the “Number of strains with strongly inhibited growth” value (25 strains of Table 5) was 14, the “Inhibition of bacterial growth” value (strain 1 (Rhodovulum)) was 0 and the “Inhibition of bacterial growth” value (strain 2 (Erythrobacter)) was 0. The “Inhibition of bacterial growth” value (strain 3 (Erythrobacter)) was “+++ (+++ denotes little or no growth, p < 0.001)”, the “Inhibition of bacterial growth” value (strain 4 (Bacillus)) was “+++ (+++ denotes little or no growth, p < 0.001)” and the “Inhibition of bacterial growth” value (strain 6 (Vibrio)) was “+ (+ denotes growth present but inhibited, p < 0.01)”. The “Inhibition of bacterial growth” value (strain 7 (Vibrio)) was “+ (+ denotes growth present but inhibited, p < 0.01)”, the “Inhibition of bacterial growth” value (strain 8 (Bacillus)) was “+ (+ denotes growth present but inhibited, p < 0.01)” and the “Inhibition of bacterial growth” value (strain 9 (Bacillus)) was “+++ (+++ denotes little or no growth, p < 0.001)”. For the same compound, the “Inhibition of bacterial growth” value (strain 10 (Halobacillus)) was “+++ (+++ denotes little or no growth, p < 0.001)”, the “Inhibition of bacterial growth” value (strain 11 (Pseudomonas)) was “+ (+ denotes growth present but inhibited, p < 0.01)” and the “Inhibition of bacterial growth” value (strain 12 (Gordonia)) was “+++ (+++ denotes little or no growth, p < 0.001)”. The “Inhibition of bacterial growth” value (strain 13 (Bacillus)) was “+++ (+++ denotes little or no growth, p < 0.001)”, the “Inhibition of bacterial growth” value (strain 14 (Vibrio)) was 0 and the “Inhibition of bacterial growth” value (strain 16 (Pseudoalteromonas)) was 0. The “Inhibition of bacterial growth” value (strain 17 (Gordonia)) was “+++ (+++ denotes little or no growth, p < 0.001)”, the “Inhibition of bacterial growth” value (strain 18 (Microbacterium)) was “+++ (+++ denotes little or no growth, p < 0.001)” and the “Inhibition of bacterial growth” value (strain 19 (Erythrobacter)) was “+++ (+++ denotes little or no growth, p < 0.001)”. For the same compound, the “Inhibition of bacterial growth” value (strain 20) was “+ (+ denotes growth present but inhibited, p < 0.01)”, the “Inhibition of bacterial growth” value (strain 21) was 0 and the “Inhibition of bacterial growth” value (strain 24) was “+ (+ denotes growth present but inhibited, p < 0.01)”. The “Inhibition of bacterial growth” value (strain 26) was 0, the “Inhibition of bacterial growth” value (strain 27) was “+++ (+++ denotes little or no growth, p < 0.001)” and the “Inhibition of bacterial growth” value (strain 28) was “+++ (+++ denotes little or no growth, p < 0.001)”. The “Inhibition of bacterial growth” value (strain 29) was “+++ (+++ denotes little or no growth, p < 0.001)” and the “Inhibition of bacterial growth” value (strain 30) was “+++ (+++ denotes little or no growth, p < 0.001)”.
